Values quoted from earlier work in US11160798B2, “Neuroprotective CB2 receptor agonists” (THE CLEVELAND CLINIC FOUNDATION, priority 2012, dated 2021).

What was measured:
rCB2 = molecular target: T1, rCB2 (Rattus norvegicus, UniProt Q9QZN9); settings: cited from earlier work
T1 sequence (Q9QZN9 1-360): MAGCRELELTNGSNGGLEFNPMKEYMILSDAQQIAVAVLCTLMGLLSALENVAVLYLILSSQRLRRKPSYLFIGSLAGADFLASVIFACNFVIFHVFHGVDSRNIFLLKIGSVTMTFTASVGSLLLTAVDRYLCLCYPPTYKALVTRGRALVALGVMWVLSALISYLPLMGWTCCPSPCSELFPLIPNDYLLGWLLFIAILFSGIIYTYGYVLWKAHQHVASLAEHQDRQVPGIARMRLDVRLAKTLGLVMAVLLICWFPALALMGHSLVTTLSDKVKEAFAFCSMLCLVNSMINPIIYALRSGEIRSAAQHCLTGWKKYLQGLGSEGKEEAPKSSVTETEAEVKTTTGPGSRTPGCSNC

hCB1 = hCB1 (Homo sapiens, UniProt P21554); settings: cited from earlier work
Chain of hCB1 (P21554 whole entry): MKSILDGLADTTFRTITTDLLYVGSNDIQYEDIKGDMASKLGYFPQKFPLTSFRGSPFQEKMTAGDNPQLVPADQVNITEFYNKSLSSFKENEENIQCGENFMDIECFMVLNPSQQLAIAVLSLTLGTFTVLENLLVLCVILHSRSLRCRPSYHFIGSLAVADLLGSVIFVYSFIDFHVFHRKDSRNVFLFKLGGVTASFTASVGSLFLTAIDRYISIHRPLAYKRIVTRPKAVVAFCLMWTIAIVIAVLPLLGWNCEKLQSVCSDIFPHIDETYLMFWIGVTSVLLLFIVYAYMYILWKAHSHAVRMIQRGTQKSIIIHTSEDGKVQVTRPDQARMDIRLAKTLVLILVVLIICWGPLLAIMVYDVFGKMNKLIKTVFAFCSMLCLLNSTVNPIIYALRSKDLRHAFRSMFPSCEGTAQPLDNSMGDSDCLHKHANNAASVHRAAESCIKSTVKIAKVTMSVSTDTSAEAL

## CC1(Cc2ccccc2)COc2cc(C(=O)N3CCCCC3)ccc21 (centres unmarked) [MDA7, 3-benzyl-3-methyl-2,3-dihydrobenzofuran-6-carboxylic acid-piperidine amide]
rCB2
  EC50: 0.067 µM
hCB1
  EC50 at hCB1: not active
